Literature values as cited in patent US11648213B2, “Transdermal therapeutic system containing asenapine” (LTS LOHMANN THERAPIE-SYSTEME AG, priority 2018, dated 2023).

Legend:
[1] = in vivo
[2] = target: serotonin 5-HT2A receptors (Homo sapiens, UniProt P28223); conditions: antagonist
Sequence of serotonin 5-HT2A receptors (P28223 whole entry): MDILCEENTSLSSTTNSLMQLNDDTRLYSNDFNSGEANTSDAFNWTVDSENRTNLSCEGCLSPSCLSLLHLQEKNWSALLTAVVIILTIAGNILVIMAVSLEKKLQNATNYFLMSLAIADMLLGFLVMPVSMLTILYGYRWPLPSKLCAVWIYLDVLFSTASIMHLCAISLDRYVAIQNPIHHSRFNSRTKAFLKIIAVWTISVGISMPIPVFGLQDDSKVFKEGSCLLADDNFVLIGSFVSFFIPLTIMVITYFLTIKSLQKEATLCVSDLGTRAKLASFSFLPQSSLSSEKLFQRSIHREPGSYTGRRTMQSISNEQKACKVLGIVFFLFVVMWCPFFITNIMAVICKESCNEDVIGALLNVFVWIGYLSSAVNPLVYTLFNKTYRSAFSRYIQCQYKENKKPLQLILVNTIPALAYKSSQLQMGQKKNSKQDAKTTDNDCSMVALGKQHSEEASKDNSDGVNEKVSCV

Question: Which terminal disposition half-life (following sublingual administration, therapeutic doses) does the source give for CN1C[C@H]2c3ccccc3Oc3ccc(Cl)cc3[C@@H]2C1 (relative stereo) [asenapine, (3aRS,12bRS)-rel-5-chloro-2,3,3a,12b-tetrahydro-2-methyl-1H-dibenz[2,3:6,7]oxepino[4,5-c]pyrrole] here?
Answer: ≥ 24 h

Question: And the bioavailability (if ingested)?
Answer: < 2%

Question: What about the “Somnolence and anxiety (very common), share of the patients” value [1] of the same compound?
Answer: ≥ 10%

Question: What about the “affinity to serotonin 5-HT2A receptors” value [2] of the same compound?
Answer: high affinity
